The results in this text go back to US12036212B2, “Enhancement of tumor response to chemotherapy by activation of the asmase/ceramide pathway through timed administration of a short-acting anti-angiogenic agent” (Memorial Sloan-Kettering Cancer Center, priority 2014, dated 2024).

Assay [1] concerns HCT116 tumors. Put plainly: Tumor response in vivo, HCT116 tumors. Set-up: species or system mice. As to the method: (§1) Human HCT-116 colon cancer cells and MCA/129 murine sarcoma cells were maintained in DMEM with 10% fetal bovine serum, with 100 u/ml penicillin and 100 μg/ml streptomycin. Cells were grown as monolayers in 75 cm^2 culture flasks at 37° C. in 10% CO2 humidified incubators. Cells were trypsinized, washed in PBS and diluted in Matrigel/PBS solution (40:60 v/v) for HCT-116 xenografts or in PBS for MCA/129 syngeneic tumor grafts. Cells (3×10^6 for HCT-116 or 1×10^6 for MCA129) were injected subcutaneously into the flanks of mice (Garcia-Barros et al. Science 300, 1155-1159, 2003).
SCID^asmase+/+ and SCID^asmase−/− mice harboring HCT-116 tumors (50-100 mm^3) were treated with three i.p. injections of 35-50 mg/kg etoposide (Novaplus®), or 15-25 mg/kg paclitaxel (Hospira), or 1-6 mg/kg cisplatin (APP Pharmaceuticals, LLC) in a bi-weekly schedule with or without i.v. DC101 (1600 μg/25 gm mouse), or control IgG. For sarcoma studies, Sv129/Bl6 mice harboring MCA/129 tumors (100-150 mm^3) were treated with three i.p. injections of 240 mg/kg gemcitabine on a bi-weekly schedule with or without i.v. DC-101. Tumor volume, based on caliper measurements (length and width in millimeters), was calculated daily using the following formula: 0.5×length×width^2.
Tumor response to chemotherapy in the colorectal HCT116 xenograft model was evaluated. SCID^asmase+/+ or SCID^asmase−/− mice harboring HCT116 tumors (50-70 mm^3) were treated with paclitaxel (15/20/25 mg/kg i.p.) three times biweekly. […] To test that the ASMase requirement is mediated by the generation of ceramide, SCID^asmase+/+ mice harboring tumors as in FIG. 5A were treated with etoposide (35/35/50 mg/kg i.p.) biweekly in the presence of anti-ceramide or isotype control antibody.
(§2) To further test the ability of cisplatin to affect endothelial cell apoptosis and tumor response in vivo, effects of cisplatin on tumor growth were evaluated.
Thus, to further explore the notion of endothelial ASMase signaling requirement in response to chemotherapy, DC101 was used in combination with paclitaxel treatment.

The test system of assay [2] is CRM. Put plainly: CRM detection by confocal microscopy in BAEC. The conditions noted are these: paclitaxel 100 nM. It is filed as cell-based, bovine. Here is the method: BAEC were grown on CC2-treated chamber slides (Nalge Nunc International Corp., Naperville, USA) and then exposed to etoposide or paclitaxel with or without pre-incubation with Nystatin (30 μg/ml, Sigma) for 30 min. BAEC were then washed in cold PBS, fixed for 15 min in fresh 2% paraformaldehyde, washed 2× with cold PBS, and blocked with 5% FBS in PBS for 20 min at room temperature. Cells were stained with anti-ceramide MID 15B4 IgM (Alexis Corporation) at 1:50 dilution for 1 hour at room temperature, washed 3× in PBS, and thereafter with Texas Red-conjugated secondary antibody (Jackson Immunoresearch Laboratories, Inc.) at 1:500 dilution for 1 hour at room temperature. Nonspecific fluorescence was excluded using isotype control IgM (BD Biosciences). Cells were washed 3×, stained with DAPI and mounted in 0.1% paraphenylenediamine. Fluorescence was detected using Leica TCS SP2 AOBS 1- and 2-photon laser scanning confocal (DMRXA2 upright stand) microscope coupled with MetaMorph 7.5 (Molecular Devices). Number of CRMs in membranes of endothelial cells was analyzed using MetaMorph 7.5 software that allowed outlining of regions containing CRMs based on two criteria: 1) CRM size (≥500 nm); 2) Intensity of ceramide staining. Mice: asmase^+/+ and asmase^−/− mice, maintained in a SCID background, were propagated using heterozygous breeding pairs and genotyped as previously described (Santana et al. Cell, 86, 189-199, 1996; Grassme et al. Nat Med 9, 322-330 (2003). 6-12 week-old C57BL6/SV129 male mice, purchased from The Jackson Laboratory (Bar Harbor).
To test the effect of chemotherapy on ASMase signaling and ceramide production, BAEC were treated with paclitaxel (100 nM) and ASMase activity was determined by radioenzymatic assay (Rotolo et al, infra) using [^14C-methylcholine] sphingomyelin (Amersham) as substrate (FIG. 1A). Induction of ASMase activity was observed within 5 minutes after treatment, and the activation continued for 30 minutes. Ceramide generation was monitored using the diacylglycerol kinase assay (Stancevic et al. PLoS ONE 8, e69025, 2013). […]

In assay [3] the test system is HCT116 human colorectal cancer xenografts. Put plainly: Endothelial apoptosis in vivo (TUNEL/MECA-32) in HCT116 xenografts. Also noted: species or system mice. The conditions noted are these: single dose paclitaxel 25 mg/kg, 4 hours. Here is the method: as §1
To evaluate acute endothelial apoptosis, tumors were grown in mice and treated with drugs as above. After the first treatment, tumors were harvested at specified times, placed into formalin overnight and paraffin-embedded the next day. Paraffin-embedded sections (5 μm) were co-stained for apoptotic endothelium using TUNEL and the endothelial-specific monoclonal antibody MECA-32 (Developmental Studies Hybridoma Bank, developed under the auspices of the NICHD and maintained by The University of Iowa, IA). […]
as §2

`N.N.[Cl][Pt][Cl]` [cisplatin]: the Tumor growth delay result in assay [1] (cisplatin 3×6 mg/kg) was “did not induce significant HCT116 tumor growth delay”.

As to `CC(=O)O[C@H]1C(=O)[C@@]2(C)[C@H]([C@H](OC(=O)c3ccccc3)[C@]3(O)C[C@H](OC(=O)[C@H](O)[C@@H](NC(=O)c4ccccc4)c4ccccc4)C(C)=C1C3(C)C)[C@]1(OC(C)=O)CO[C@@H]1C[C@@H]2O` [paclitaxel], the “CRM formation peak time” value in assay [2] turned out to be 5 min. Besides, the “CRM formation remained elevated for” value in assay [2] worked out at 30 min. Further, the results for the Tumor endothelial apoptosis result in assay [3] (SCID asmase+/+) and in assay [3] (SCID asmase−/−) were “robust endothelial apoptosis” and “resistant to chemotherapy-induced endothelial cell apoptosis”, respectively. Moreover, in assay [1] (SCID asmase+/+, 3×15 mg/kg paclitaxel or 1600 μg DC101 alone), the “Tumor response, agent alone” value is listed as “slightly affected”. In assay [1] (SCID asmase+/+, paclitaxel 15/20/25 mg/kg i.p. three times biweekly), the “Complete tumor response after” value turned out to be 10 ± 1 days. In addition, in assay [1] (SCID asmase−/−, paclitaxel 15/20/25 mg/kg i.p. three times biweekly), the Tumor response result is “no significant tumor response”.
